Paper PMC3689638, “Cell cycle-dependent activity of the novel dual PI3K-MTORC1/2 inhibitor NVP-BGT226 in acute leukemia” (Molecular Cancer, 2013)

System: AKT phosphorylation (Ser473, Thr308)
Assay: western immunoblot of AKT signaling, MOLM14 or K562 cells
Type: cell-based, human
Text: For comparative analysis, additional lysates from cells treated with an ABL1 or FLT3 tyrosine kinase inhibitor (imatinib for K562 BCR-ABL1 cells, sunitinib for MOLM14 FLT3 ITD cells) as well as rapamycin were used.
Rabbit anti-panAKT, panFLT3, panABL1 or anti-cleaved caspase 3 antibodies were used at a 1:500 to 1:1000 dilution. Rabbit anti-phospho-AKT antibodies detecting phosphorylated isoforms of T308-AKT, S473-AKT, S807/811-RB, S575-ULK1, T389-p70S6K, Y694-STAT5, FLT3, ABL1 or T202/Y204-ERK1/2 were used at a 1:250 to 1:1000 dilution. An anti-actin mouse monoclonal antibody was used as a loading control. All antibodies, if not otherwise indicated, were purchased from Cell Signaling Technology.
Cell pellets were lysed with 100 to 150 μl of protein lysis buffer (50 mmol/L Tris, 150 mmol/L NaCl, 1% NP40, 0.25% deoxycholate with added inhibitors aprotinin, AEBSF, leupeptin, pepstatin, sodium orthovanadate, and sodium pyruvate, respectively phosphatase inhibitor cocktails „2“ and „1“ or „3“ (Sigma, St. Louis, MO). Protein from cell lysates (75 to 200 μg protein) was used for whole cell protein analysis after denaturing by Western immunoblot assays using a BioRad Criterion system. Nonspecific binding was blocked by incubating the blots in nonfat dry milk or BSA. Primary antibodies were incubated for one hour or over night, followed by several washes of Tris-buffered saline (TBS) containing 0.005% Tween 20. The appropriate secondary antibody was applied for 30‘, followed by several washes. Antibody-reactive proteins were detected using a LI-COR Odyssey® fluorescence optical system.

## CO[C@H]1C[C@@H]2CC[C@@H](C)[C@@](O)(O2)C(=O)C(=O)N2CCCC[C@H]2C(=O)O[C@H]([C@H](C)C[C@@H]2CC[C@@H](O)[C@H](OC)C2)CC(=O)[C@H](C)/C=C(\C)[C@@H](O)[C@@H](OC)C(=O)[C@H](C)C[C@H](C)/C=C/C=C/C=C/1C [rapamycin]
  phosphorylation of AKT (immunoblot): did not suppress AKT phosphorylation
